In patent publication US5990146A, “Benzimidazoles for inhibiting protein tyrosine kinase mediated cellular proliferation” (Warner-Lambert Company, priority 1998, dated 1999):
Counter-ions that a name gives are not always drawn.

How the values were obtained:
Assay type in all cases: biochemical
[1] = molecular target: T1, PDGF receptor tyrosine kinase (mouse PDGF-β) (Mus musculus, UniProt P05622); test: PDGFr tyrosine kinase assay (poly glutamate-tyrosine phosphorylation); details: Table 1; 10 minutes at 25° C.
T1 construct: PCR primers are designed to amplify a fragment of DNA that codes for the intracellular tyrosine kinase domain; made in house; host or cells: Sf9 insect cells (baculovirus), cell lysate
Procedure: Platelet Derived Growth Factor Receptor (PDGFr) and Fibroblast Growth Factor Receptor (FGFr)
Full length cDNAs for the mouse PDGF-β and human FGF-1 (flg) receptor tyrosine kinases were obtained from J. Escobedo and are prepared as described in J. Biol. Chem., 262: 1482-1487 (1991). PCR primers are designed to amplify a fragment of DNA that codes for the intracellular tyrosine kinase domain. The fragment is melded into a baculovirus vector, cotransfected with AcMNPV DNA, and the recombinant virus isolated. SF9 insect cells are infected with the virus to overexpress the protein, and the cell lysate is used for the assay.
The assay is performed in 96-well plates (100 μL/incubation/well), and conditions are optimized to measure the incorporation of ^32 p from [γ^32 P]-ATP into a glutamate-tyrosine copolymer substrate. Briefly, to each well is added 82.5 μL of incubation buffer containing 25 mM Hepes (pH 7.0), 150 mM NaCl, 0.1% Triton X-100, 0.2 mM PMSF, 0.2 mM sodium vanadate, 10 mM manganese chloride, and 750 μg/mL of poly (4:1) glutamate-tyrosine followed by 2.5 μL of inhibitor and 5 μL of enzyme lysate (7.5 μg/μL FGFR-TK or 6.0 μg/μL PDGFR-TK) to initiate the reaction. Following a 10 minute incubation at 25° C., 10 μL of [γ^32 P]-ATP (0.4 μCi plus 50 μM ATP) is added to each well and samples are incubated for an additional 10 minutes at 25° C. The reaction is terminated by the addition of 100 μL of 30% trichloroacetic acid (TCA) containing 20 mM sodium pyrophosphate and precipitation of material onto glass fiber filter mats (Wallac). Filters are washed 3 times with 15% TCA containing 100 mM sodium pyrophosphate and the radioactivity retained on the filters counted in a Wallac 1250 Betaplate reader. Nonspecific activity is defined as radioactivity retained on the filters following incubation of samples with buffer alone (no enzyme). Specific enzymatic activity is defined as total activity (enzyme plus buffer) minus nonspecific activity.

insulin receptor (INSr) = molecular target: T2, insulin receptor (INSr) (Homo sapiens, UniProt P06213); test: Insulin receptor kinase assay; details: Table 1; as for EGF receptor with 10 mM manganese chloride
T2 construct: An assay using the intracellular kinase domains of insulin receptor (INSr) is performed

[2] = molecular target: T3, FGF receptor tyrosine kinase (human FGF-1 (flg)) (Homo sapiens, UniProt P11362); test: FGFr tyrosine kinase assay (poly glutamate-tyrosine phosphorylation); details: Table 1; 10 minutes at 25° C.
T3 construct: PCR primers are designed to amplify a fragment of DNA that codes for the intracellular tyrosine kinase domain; made in house; host or cells: Sf9 insect cells (baculovirus), cell lysate
Procedure: Platelet Derived Growth Factor Receptor (PDGFr) and Fibroblast Growth Factor Receptor (FGFr) Full length cDNAs for the mouse PDGF-β and human FGF-1 (flg) receptor tyrosine kinases were obtained from J. Escobedo and are prepared as described in J. Biol. Chem., 262: 1482-1487 (1991). PCR primers are designed to amplify a fragment of DNA that codes for the intracellular tyrosine kinase domain. The fragment is […] into a baculovirus vector, cotransfected with AcMNPV DNA, and the recombinant virus isolated. SF9 insect cells are infected with the virus to overexpress the protein, and the cell lysate is used for the […] and FGFr The assay is performed in 96-well plates (100 μL/incubation/well), and conditions are optimized to measure the incorporation of ^32 p from [γ^32 P]-ATP into a glutamate-tyrosine copolymer substrate. […] The reaction is terminated by the addition of 100 μL of 30% trichloroacetic acid (TCA) containing 20 mM sodium pyrophosphate and precipitation of material onto glass fiber filter mats (Wallac). Filters are washed 3 times with 15% TCA containing 100 mM sodium pyrophosphate and the radioactivity retained on the filters counted in a Wallac 1250 Betaplate reader. Nonspecific activity is defined as radioactivity retained on the filters following incubation of samples with buffer alone (no enzyme). Specific enzymatic activity is defined as total activity (enzyme plus buffer) minus nonspecific activity.

c-Src = molecular target: T4, c-Src (Homo sapiens, UniProt P12931); test: c-Src kinase assay; details: Table 1; 5 μM ATP, room temperature, 10 minutes
T4 construct: made in house; host or cells: baculovirus infected insect cells
Procedure: c-Src kinase is purified from baculovirus infected insect cell lysates using an antipeptide monoclonal antibody directed against the N-terminal 2-17 amino acids as described previously by Fry, et al, Anticancer Drug Design. 9: 331-351 (1994). […] At the end of the lysate incubation, the beads are rinsed 3 times in lysis buffer, resuspended in lysis buffer containing 10% glycerol, and frozen. These latex beads are thawed, rinsed 3 times in assay buffer which is comprised of 40 mM tris pH 7.5, 5 mM magnesium chloride, and suspended in the same buffer. […] The reaction is started at room temperature by addition of the ATP and quenched 10 minutes later by the addition of 125 μL of 30% TCA, 0.1 M sodium pyrophosphate for 15 minutes on ice. The plate is then filtered and the wells washed with two 250-μL aliquots of 15% TCA, 0.1 M pyrophosphate. The filters are punched, counted in a liquid scintillation counter, and the data examined for inhibitory activity in comparison to a known inhibitor such as erbstatin. The method is described more fully in J. Med. Chem., 37: 598-609 (1994).

T4 sequence (P12931 whole entry, species assumed): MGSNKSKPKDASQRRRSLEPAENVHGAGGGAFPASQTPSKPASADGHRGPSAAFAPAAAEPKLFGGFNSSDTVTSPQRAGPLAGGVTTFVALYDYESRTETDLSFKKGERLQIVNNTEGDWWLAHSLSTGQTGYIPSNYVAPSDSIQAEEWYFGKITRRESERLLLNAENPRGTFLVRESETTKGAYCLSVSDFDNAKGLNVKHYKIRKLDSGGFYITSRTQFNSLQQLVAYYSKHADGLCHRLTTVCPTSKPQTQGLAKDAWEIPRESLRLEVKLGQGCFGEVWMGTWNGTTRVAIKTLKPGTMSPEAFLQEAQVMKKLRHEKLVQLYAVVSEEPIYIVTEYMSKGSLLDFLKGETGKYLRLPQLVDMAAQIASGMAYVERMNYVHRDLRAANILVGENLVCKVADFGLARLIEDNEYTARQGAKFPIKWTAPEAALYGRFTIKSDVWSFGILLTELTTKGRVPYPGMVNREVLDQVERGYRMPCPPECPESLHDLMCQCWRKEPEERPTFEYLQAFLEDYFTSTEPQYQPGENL
T1 sequence (P05622 599-961 limits assumed): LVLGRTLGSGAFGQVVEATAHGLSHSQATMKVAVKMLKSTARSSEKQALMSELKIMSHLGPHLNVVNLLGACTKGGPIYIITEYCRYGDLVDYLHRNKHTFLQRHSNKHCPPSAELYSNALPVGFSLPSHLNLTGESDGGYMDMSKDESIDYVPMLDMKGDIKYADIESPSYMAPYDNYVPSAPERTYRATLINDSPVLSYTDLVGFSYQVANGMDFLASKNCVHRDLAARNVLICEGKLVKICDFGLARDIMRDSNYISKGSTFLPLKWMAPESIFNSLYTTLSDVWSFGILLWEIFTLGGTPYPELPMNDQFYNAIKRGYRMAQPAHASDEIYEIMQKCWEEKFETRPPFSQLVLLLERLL
T2 sequence (P06213 1023-1298 limits assumed, species assumed): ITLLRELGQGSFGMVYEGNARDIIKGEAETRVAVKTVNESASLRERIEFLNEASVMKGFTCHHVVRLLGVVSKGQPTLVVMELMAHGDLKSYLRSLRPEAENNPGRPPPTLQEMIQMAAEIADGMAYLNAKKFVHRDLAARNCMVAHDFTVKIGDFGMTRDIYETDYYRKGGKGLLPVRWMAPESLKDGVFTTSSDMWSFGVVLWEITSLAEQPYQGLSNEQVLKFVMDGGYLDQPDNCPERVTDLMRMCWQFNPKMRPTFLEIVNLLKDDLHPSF
T3 sequence (P11362 478-767 limits assumed): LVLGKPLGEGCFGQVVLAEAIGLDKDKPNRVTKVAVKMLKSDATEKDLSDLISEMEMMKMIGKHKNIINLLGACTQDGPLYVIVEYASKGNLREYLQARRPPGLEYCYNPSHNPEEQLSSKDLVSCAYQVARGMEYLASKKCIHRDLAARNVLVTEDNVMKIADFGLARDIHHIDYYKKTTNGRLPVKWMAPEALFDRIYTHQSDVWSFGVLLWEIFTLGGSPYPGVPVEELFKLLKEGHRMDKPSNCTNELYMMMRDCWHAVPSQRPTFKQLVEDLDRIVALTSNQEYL

Row | IC50 [1] [µM] | IC50 (insulin receptor (INSr)) [µM] | IC50 [2] [µM] | IC50 (c-Src) [µM] | Structure (SMILES)
1 | 3.8 | > 50 | 50 | > 50 | Oc1cccc(-n2cnc3ccccc32)c1 [Example 2, 1-(3-Hydroxyphenyl)benzimidazole Hydrochloride]
2 | 6.8 | > 50 | > 50 | > 50 | O=Cc1cccc(-n2cnc3ccccc32)c1 [Example 4, 1-(3-Formylphenyl)benzimidazole Hydrochloride]
3 | 12 | > 50 | – | > 50 | COc1ccc(-n2cnc3ccccc32)cc1 [Example 5, 1-(4-Methoxyphenyl)benzimidazole Hydrochloride]
4 | 12.3 | > 50 | 50 | > 50 | c1ccc2c(c1)ncn2-c1ccncc1 [Example 10, 1-(4-Pyridinyl)benzimidazole dihydrochloride]
5 | 10 | > 50 | 49 | > 50 | c1ccc(-n2cnc3cnccc32)cc1 [Example 22, 1-Phenylimidazo-1H-imidazol[4,5-c]pyridine Hydrochloride]
6 | 3.3 | > 50 | 32 | < 50 | CC(=O)Nc1ccc2c(c1)ncn2-c1ccccc1 [Example 23, 5-Acetamido-1-phenylbenzimidazole Hydrochloride]
7 | 2.4 | > 50 | 41 | > 50 | CCC(=O)Nc1ccc2c(c1)ncn2-c1ccccc1 [Example 24, 5-Propionamido-1-phenylbenzimidazole Hydrochloride]
8 | 5.3 | – | 37 | > 50 | C=CC(=O)Nc1ccc2c(c1)ncn2-c1ccccc1 [Example 25, 5-Acrylamido-1-phenylbenzimidazole]
9 | 0.3 | > 50 | 35 | > 50 | CCCOc1ccc2c(c1)ncn2-c1ccccc1 [Example 29, 1-Phenyl-5-propoxybenzimidazole hydrochloride]
10 | 0.3 | – | 15 | – | OCC(O)COc1ccc2c(c1)ncn2-c1ccccc1 (stereo not drawn) [Example 33, 5-(2,3-Dihydroxypropoxy)-1-phenylbenzimidazole Hydrochloride]
11 | 5.4 | – | – | – | Clc1ccc2ncn(-c3ccccc3)c2c1 [Example 42, 6-Chloro-1-phenylbenzimidazole]
12 | – | > 50 | 27 | – | c1ccc(-n2cnc3cc4c(cc32)OCO4)cc1 [Example 48, 5,6-Methylenedioxy-1-phenylbenzimidazole Hydrochloride]
13 | – | – | 22 | – | O=C(O)c1cc2c(cc1O)ncn2-c1ccccc1 [Example 52, 5-Hydroxy-1-phenylbenzimidazole-6-carboxylic acid Hydrobromide]
14 | 1.1 | > 50 | – | – | COc1cc2ncn(-c3ccccc3)c2cc1C=O [Example 54, 5-Methoxy-1-phenylbenzimidazole-6-carboxaldehyde Hydrochloride]
15 | 0.7 | – | 6.5 | > 50 | COc1ccc2c(c1)ncn2-c1ccsc1 [Example 56, 5-Methoxy-1-(3-thienyl)benzimidazole Hydrochloride]
16 | – | – | – | > 50 | COc1ccc2c(ncn2-c2ccccc2)c1OC [Example 60, 4,5-Dimethoxy-1-phenylbenzimidazole Hydrochloride]
17 | – | – | 1.9 | – | Oc1ccc2c(ncn2-c2ccccc2)c1O [Example 61, 4,5-Dihydroxy-1-phenylbenzimidazole Hydrochloride]
18 | < 50 | – | – | 40 | COc1ccc2c(ncn2-c2ccccc2)c1O [Example 63, 4-Hydroxy-5-methoxy-1-phenylbenzimidazole Hydrochloride]

Further lines, the compound ahead of its results:

Row | Structure (SMILES) | IC50 [1] [µM] | IC50 (insulin receptor (INSr)) [µM] | IC50 [2] [µM] | IC50 (c-Src) [µM]
19 | c1ccc(-n2cnc3cc(OCC4CO4)ccc32)cc1 (racemic) [Example 34, 5-(2,3-Epoxypropoxy)-1-phenylbenzimidazole] | 0.3 | – | – | –
20 | Oc1ccc(-n2cnc3ccccc32)cc1 [Example 6, 1-(4-Hydroxyphenyl)benzimidazole Hydrochloride] | 1.8 | > 50 | 5.8 | > 50
21 | O=Cc1ccc(-n2cnc3ccccc32)cc1 [Example 9, 1-(4-Formylphenyl)benzimidazole] | 13.5 | – | – | > 50
22 | Clc1ccc2c(c1)ncn2-c1ccccc1 [Example 15, 5-Chloro-1-phenylbenzimidazole] | 4 | – | 51 | –
23 | CC(=O)c1ccc2c(c1)ncn2-c1ccccc1 [Example 20, 5-Acetyl-1-phenylbenzimidazole] | 0.9 | – | 14 | –
24 | CCOc1ccc2c(c1)ncn2-c1ccccc1 [Example 28, 5-Ethoxy-1-phenylbenzimidazole Hydrochloride] | 0.2 | > 50 | 26 | –
25 | CC(C)Oc1ccc2c(c1)ncn2-c1ccccc1 [Example 30, 5-Isopropoxy-1-phenylbenzimidazole Hydrochloride] | < 50 | > 50 | – | –
26 | CCCCOc1ccc2c(c1)ncn2-c1ccccc1 [Example 31, 5-Butoxy-1-phenylbenzimidazole Hydrochloride] | – | > 50 | – | –
27 | CCOc1ccc2ncn(-c3ccccc3)c2c1 [Example 44, 6-Ethoxy-1-phenylbenzimidazole] | 9.6 | – | > 50 | –
28 | COc1cc2ncn(-c3ccccc3)c2cc1OC [Example 46, 5,6-Dimethoxy-1-phenylbenzimidazole Hydrochloride] | – | > 50 | 25 | 40
29 | Oc1cc2ncn(-c3ccccc3)c2cc1O [Example 47, 5,6-Dihydroxy-1-phenylbenzimidazole Hydrochloride] | 2.3 | > 50 | 11 | –
30 | COc1cc2ncn(-c3ccccc3)c2cc1C [Example 49, 5-Methoxy-6-methyl-1-phenylbenzimidazole Hydrochloride] | – | > 50 | – | –
31 | Cc1cc2c(cc1O)ncn2-c1ccccc1 [Example 50, 5-Hydroxy-6-methyl-1-phenylbenzimidazole Hydrochloride] | – | > 50 | – | –
32 | OCCCCOc1ccc2c(c1)ncn2-c1ccccc1 [Example 57, 5-(4-Hydroxybutoxy)-1-phenylbenzimidazole Hydrochloride] | 0.5 | – | 25 | > 50
33 | CN(C)CCCCOc1ccc2c(c1)ncn2-c1ccccc1 [Example 58, 5-[4-(N,N-Dimethylamino)butoxy]-1-phenylbenzimidazole Dihydrochloride] | 0.2 | – | 6 | 50
34 | COc1c(O)ccc2c1ncn2-c1ccccc1 [Example 62, 5-Hydroxy-4-methoxy-1-phenylbenzimidazole Hydrochloride] | 50 | – | 50 | –
